Data from patent publication US10716750B2, “Topical ophthalmic formulations of endothelin receptor antagonists” (Retinset, S.L., priority 2015, dated 2020).
Entries after “also recorded” stand apart in the source; their conditions may differ.

How the values were obtained:
[1] = test system: diabetic mice (db/db); test: Determination of glial activation (GFAP staining score, confocal microscopy of retina sections) after topical ocular treatment; type: in vivo
Method: (§1) In tests 12 male db/db mice aged 10 weeks (Harlan Laboratories, Inc.) were used, and were divided into two groups: 6 of these mice were treated with a formulation of the present invention, and 6 mice with a sodium chloride solution, as described below. 6 non-diabetic (db/+) mice matched by age were also used as the control group.
(§2) On day 15, approximately 1 hour before necropsy, a drop of formulation of the present invention or vehicle was instilled in the eyes of the animals. Following euthanasia, eyes were enucleated. The neuroretina from one of the eyes was extracted, frozen in liquid nitrogen and stored at a temperature of −80° C. The other eye was fixed with a solution of 4% paraformaldehyde, processed routinely, and embedded in paraffin blocks.
Glial activation was evaluated by Laser Scanning Confocal microscopy using specific antibodies against GFAP (glial fibrillary acidic protein). Retina sections were fixed in acidic methanol at −20° C. for 2 min, followed by three washes with phosphate buffer (PBS) for 5 min each. Retina sections were permeabilized with a tris buffer (TBS) with 0.025% Triton® X-100 and incubated for 2 hours at room temperature in a blocker solution composed of 1% BSA (serum albumin bovine) and 10% goat serum in 10% PBS. Retina sections were incubated with rabbit anti-GFAP antibody (Abcam Ltd, Cambridge, UK; 1:500 dilution prepared in blocking solution) overnight at 4° C. in a humid atmosphere. After three washes with PBS solution, 5 minutes each, the retina sections were incubated with the secondary antibody Alexa 488 goat anti-rabbit (Invitrogen, San Diego Calif., USA) at a 1:200 dilution prepared in blocking solution. Retina sections were washed three times with PBS, counterstained with Hoechst, mounted with Mounting Medium Fluorescence (Prolong, Invitrogen) and mounted with a coverslip. Comparative digital images from samples were recorded with FluoView FV 1000 Laser Scanning Confocal microscope Olympus using identical settings for brightness and contrast.
A scoring system based on the extent of GFAP staining described in Anderson et al., Glial and endothelial blood-retinal barrier responses to amyloid-β in the neural retina of the rat, Olin. Ophthalmol., 2008, 2, 801-816, was used in order to assess the degree of glial activation. This scoring system was as follows: • Score 1: Müller cell endfeet/ ganglion retinal cell layer (GCL) only; • Score 2: Müller cell endfeet region/GCL plus a few proximal processes; • Score 3: Müller cell endfeet plus many processes, but not extending to the outer nuclear layer (ONL) of the retina; • Score 4: Müller cell endfeet plus processes throughout with some in the ONL; • Score 5: Müller cell endfeet plus lots of dark processes from GCL to outer margin of ONL.
The score was assessed on the retina of each animal and a minimum of 10 sections per retina.

[2] = test system: diabetic mice (db/db); test: Immunohistochemical evaluation of apoptosis (TUNEL staining of retina sections) after topical ocular treatment; type: in vivo
Method: as §1, §2
Immunohistochemical analysis for apoptosis assessment was carried out TUNEL (Terminal Transferase dUTP Nick-End Labeling) staining using the DeadEnd Fluorometric TUNEL System Kit (Promega, Madison, Wis., USA).
Cryosections of retina were permeabilized by incubation on ice for 2 min with 0.1% Triton X-100 and 0.1% sodium citrate freshly prepared solution. The secondary antibody was Alexa 488 goat anti-rabbit (Invitrogen, San Diego Calif., USA). For evaluation by Laser Scanning Confocal microscopy, the excitation wavelength was 488 nm and detection in the range from 515 to 565 nm, which corresponds to green colour.
The evaluation was carried out in the retina of each animal and a minimum of 10 sections per retina.

COc1ccccc1Oc1c(NS(=O)(=O)c2ccc(C(C)(C)C)cc2)nc(-c2ncccn2)nc1OCCO [Bosentan]
glial activation / reactive gliosis (in words) ([1]; 14 days, twice per day, versus vehicle-treated diabetic animals): significant decrease of reactive gliosis; also recorded: less glial activation | degree of glial activation (percentage for each score of GFAP expression), Score 1 ([1]; one 5 μl drop of formulation of Example 1 per eye, twice daily for 14 days, Score 1: Müller cell endfeet/GCL only): 85% | degree of glial activation (percentage for each score of GFAP expression), Score 2 ([1]; one 5 μl drop of formulation of Example 1 per eye, twice daily for 14 days, Score 2: endfeet region/GCL plus a few proximal processes): 15% | degree of glial activation (percentage for each score of GFAP expression), Score 3 ([1]; one 5 μl drop of formulation of Example 1 per eye, twice daily for 14 days, Score 3: endfeet plus many processes, not extending to ONL): 0% | degree of glial activation (percentage for each score of GFAP expression), Score 4 ([1]; one 5 μl drop of formulation of Example 1 per eye, twice daily for 14 days, Score 4: endfeet plus processes throughout with some in the ONL): 0% | degree of glial activation (percentage for each score of GFAP expression), Score 5 ([1]; one 5 μl drop of formulation of Example 1 per eye, twice daily for 14 days, Score 5: endfeet plus lots of dark processes from GCL to outer margin of ONL): 0% | share with GFAP score less than 2 ([1]; two weeks of administration): 85% | GFAP score of the treated animals ([1]; two weeks of administration, all cases, score scale 1-5): < 3 | apoptosis in all retinal layers (in words) ([2]; 14 days, twice per day, versus control (db/+) and vehicle-treated diabetic animals): reduced apoptosis | TUNEL staining-positive cell percentage, GCL, mean (standard deviation) ([2]; topical ocular, twice daily for 14 days, ganglion cell layer, p <0.001 vs vehicle): 1.42 (0.38) % | TUNEL staining-positive cell percentage, INL, mean (standard deviation) ([2]; topical ocular, twice daily for 14 days, inner nuclear layer, p <0.001 vs vehicle): 0.36 (0.31) % | TUNEL staining-positive cell percentage, ONL, mean (standard deviation) ([2]; topical ocular, twice daily for 14 days, outer nuclear layer, p <0.001 vs vehicle): 0 (0.07) %
